# Tests used:
# [1] = test system: ceDNA-luciferase (ceDNA-luc); experiment: In vivo ceDNA-luc expression by IVIS imaging after IV dosing of LNPs; set-up: species or system CD-1 mice; settings: for luciferase expression and/or activity, rank among lipids tested: Studies A and B; for luciferase expressions and/or activity compared to positive control SS-OP ceDNA LNPs: Study A, vs LNPs 1, 2 and 7-12 (SS-OP), FIG. 1; for luciferase expressions and/or activity compared to positive control SS-OP ceDNA LNPs / luciferase activity compared to positive control SS-OP ceDNA LNP / luciferase expression and/or activity compared to positive control SS-OP ceDNA LNP / luciferase expressions and/or activity compared to SS-OP LNP: Day 4; for luciferase expressions and/or activity compared to positive control SS-OP ceDNA LNPs / luciferase activity compared to positive control SS-OP ceDNA LNP: 0.25 mg/kg IV once on Day 0; for luciferase activity compared to positive control SS-OP ceDNA LNP: Study B, vs LNP 13 (SS-OP), FIG. 2; for luciferase expression and/or activity compared to positive control SS-OP ceDNA LNP: Study C, at both 25 mg/kg and 1 mg/kg, vs LNP 19 (SS-OP), FIG. 3; for luciferase expressions and/or activity compared to SS-OP LNP: 0.25 mg/kg IV
# Protocol: Lipid nanoparticles (LNP) were prepared at a total lipid to ceDNA weight ratio of approximately 10:1 to 30:1. Briefly, an ionizable lipid of the present invention, a non-cationic lipid (e.g., distearoylphosphatidylcholine (DSPC)), a component to provide membrane integrity (such as a sterol, e.g., cholesterol) and a conjugated lipid molecule (such as a PEG-lipid, e.g., 1-(monomethoxy-polyethyleneglycol)-2,3-dimyristoylglycerol, with an average PEG molecular weight of 2000 (“PEG-DMG”)), were solubilized in alcohol (e.g., ethanol) at a molar ratio of, for example, 50:10:37:3 or 20:40:38:2. The ceDNA was diluted to a desired concentration in buffer solution. For example, the ceDNA were diluted to a concentration of 0.1 mg/ml to 0.25 mg/ml in a buffer solution comprising sodium acetate, sodium acetate and magnesium chloride, citrate, malic acid, or malic acid and sodium chloride. In one example, the ceDNA was diluted to 0.2 mg/mL in 10 to 50 mM citrate buffer, pH 4. The alcoholic lipid solution was mixed with ceDNA aqueous solution using, for example, syringe pumps or an impinging jet mixer, at a ratio of about 1:5 to 1:3 (vol/vol) with total flow rates above 10 ml/min. In one example, the alcoholic lipid solution was mixed with ceDNA aqueous at a ratio of about 1:3 (vol/vol) with a flow rate of 12 ml/min. The alcohol was removed, and the buffer was replaced with PBS by dialysis. Alternatively, the buffers were replaced with PBS using centrifugal tubes. Alcohol removal and simultaneous buffer exchange were accomplished by, for example, dialysis or tangential flow filtration. The obtained lipid nanoparticles are filtered through a 0.2 µm pore sterile filter.
# In one study, lipid nanoparticles comprising exemplary ceDNAs were prepared using a lipid solution comprising SS-OP, DSPC, Cholesterol and DMG-PEG2000 (mol ratio 50:10:37:3) as control. In some examples, a tissue target moiety like N-Acetylgalactosamine (GalNAc) was included. A GalNAc moiety such as tri-antennary GalNAc (GalNAc3) or tetra-antennary GalNAc (GalNAc4) can be synthesized as known in the art (see, WO2017/084987 and WO2013/166121) and chemically conjugated to lipid or PEG as well-known in the art (see, Resen et al., J. Biol. Chem. (2001) “Determination of the Upper Size Limit for Uptake and Processing of Ligands by the Asialoglycoprotein Receptor on Hepatocytes in Vitro and in Vivo” […]). Aqueous solutions of ceDNA in buffered solutions were prepared. The lipid solution and the ceDNA solution were mixed using an in-house procedure on a NanoAssembler at a total flow rate of 12 mL/min at a lipid to ceDNA ratio of 1:3 (v/v).
# (§1) Species (number, sex, age): CD-1 mice (N=65 and 5 spare, male, about 4 weeks of age at arrival).
# (§2) Dose Administration: Test articles (LNPs: ceDNA-Luc) were dosed at 5 mL/kg on Day 0 for Groups 1-38 by intravenous administration to lateral tail vein.
# • Luciferin stock powder was stored at nominally −20° C. • Stored formulated luciferin in 1 mL aliquots at 2-8° C. protect from light. • Formulated luciferin was stable for up to 3 weeks at 2-8° C., protected from light and stable for about 12 hrs at room temperature (RT). • Dissolved luciferin in PBS to a target concentration of 60 mg/mL at a sufficient volume and adjusted to pH=7.4 with 5-M NaOH (about 0.5 μl/mg luciferin) and HCl (about 0.5 μL/mg luciferin) as needed. • Prepared the appropriate amount according to protocol including at least a about 50% overage. […]
# [2] = Tolerability in mice as measured by change in body weight; format: in vivo; settings: body weight at Day 1, 0.25 mg/kg IV
# Protocol: as §1
# Clinical Observations: Clinical observations were performed about 1, about 5 to about 6 and about 24 hours post the Day 0 Test Material dose. Additional observations were made per exception. Body weights for all animals, as applicable, were recorded on Days 0, 1, 2, 3, 4 & 7 (prior to euthanasia). Additional body weights were recorded as needed.
# as §2
# [3] = Study D, vs LNP 23 (SS-OP), FIG. 4A
# [4] = Study D, control Ionizable Lipid A (LNP 22), FIG. 4B
# [5] = Study E, vs LNP 27 (SS-OP), FIG. 5A
# [6] = Study E, outlier data point in LNP 30 excepted, FIG. 5B
Structure (SMILES),luciferase expressions and/or activity compared to positive control SS-OP ceDNA LNPs [1],luciferase activity compared to positive control SS-OP ceDNA LNP [1],"luciferase expressions and/or activity compared to SS-OP LNP [1, 3]","tolerability (change in body weight) [2, 4]","luciferase expressions and/or activity compared to SS-OP LNP [1, 5]","tolerability (change in body weight) [2, 6]",further results
"CCCCCCCCCOC(=O)CCCCCCCC(=O)Oc1ccc(CC(=O)OCCC2CCN(CCSSCCN3CCC(CCOC(=O)Cc4ccc(OC(=O)CCCCCCCC(=O)OC(CCCCCCCC)CCCCCCCC)cc4)CC3)CC2)cc1 [Lipid 3, 1-(heptadecan-9-yl) 9-(4-(2-(2-(1-(2-((2-(4-(2-(2-(4-((9-(nonyloxy)-9-oxononanoyl)oxy)phenyl)acetoxy)ethyl)piperidin-1-yl)ethyl)disulfaneyl)ethyl)piperidin-4-yl)ethoxy)-2-oxoethyl)phenyl) nonanedioate]",equivalent or higher,equivalent or higher,,,,,"luciferase expression and/or activity, rank among lipids tested [1]: highest; luciferase expression and/or activity compared to positive control SS-OP ceDNA LNP [1]: higher"
"CCCCCCCC/C=C\CCCCCCCC(=O)Oc1ccc(CC(=O)OCCC2CCN(CCSSCCN3CCC(CCOC(=O)Cc4ccc(OC(=O)CCCCCCCC(=O)OC(CC)CCCCCCCC)cc4)CC3)CC2)cc1 (stereo not drawn) [Lipid 6, 1-(4-(2-(2-(1-(2-((2-(4-(2-(2-(4-(oleoyloxy)phenyl)acetoxy)ethyl)piperidin-1-yl)ethyl)disulfaneyl)ethyl)piperidin-4-yl)ethoxy)-2-oxoethyl)phenyl) 9-(undecan-3-yl) nonanedioate]",,,equivalent or higher,did not cause changes in body weight,,,
"CCCCCCCCCOC(=O)CCCCCCCC(=O)Oc1ccc(CC(=O)OCCC2CCN(CCSSCCN3CCC(CCOC(=O)Cc4ccc(OC(=O)CCCCCCCC(=O)OC(CC)CCCCCCCC)cc4)CC3)CC2)cc1 (stereo not drawn) [Lipid 9, 1-nonyl 9-(4-(2-oxo-2-(2-(1-(2-((2-(4-(2-(2-(4-((9-oxo-9-(undecan-3-yloxy)nonanoyl)oxy)phenyl)acetoxy)ethyl)piperidin-1-yl)ethyl)disulfaneyl)ethyl)piperidin-4-yl)ethoxy)ethyl)phenyl) nonanedioate]",,,,,equivalent or higher,did not cause significant changes in body weight,
"CCCCCCCC/C=C\CCCCCCCC(=O)Oc1ccc(CC(=O)OCCC2CCN(CCSSCCN3CCC(CCOC(=O)Cc4ccc(OC(=O)CCCCCCCC(=O)OC(CCCCCC)CCCCCCCC)cc4)CC3)CC2)cc1 (stereo not drawn) [Lipid 8, 1-(4-(2-(2-(1-(2-((2-(4-(2-(2-(4-(oleoyloxy)phenyl)acetoxy)ethyl)piperidin-1-yl)ethyl)disulfaneyl)ethyl)piperidin-4-yl)ethoxy)-2-oxoethyl)phenyl) 9-(pentadecan-7-yl) nonanedioate]",,,equivalent or higher,did not cause changes in body weight,,,
"CCCCCCCC/C=C\CCCCCCCC(=O)Oc1ccc(CC(=O)OCCC2CCN(CCSSCCN3CCC(CCOC(=O)Cc4ccc(OC(=O)CCCCCCCC(=O)OC(CCCC)CCCCCCCC)cc4)CC3)CC2)cc1 (stereo not drawn) [Lipid 7, 1-(4-(2-(2-(1-(2-((2-(4-(2-(2-(4-(oleoyloxy)phenyl)acetoxy)ethyl)piperidin-1-yl)ethyl)disulfaneyl)ethyl)piperidin-4-yl)ethoxy)-2-oxoethyl)phenyl) 9-(tridecan-5-yl) nonanedioate]",,,equivalent or higher,did not cause changes in body weight,,,
"CCCCCCCCC(CCCCCCCC)OC(=O)CCCCCCCC(=O)Oc1ccc(CC(=O)OCCC2CCN(CCSSCCN3CCC(CCOC(=O)Cc4ccc(OC(=O)CCCCCCCC(=O)OC(CCCCCCCC)CCCCCCCC)cc4)CC3)CC2)cc1 [Lipid 5, O′1,O1-((((((disulfanediylbis(ethane-2,1-diyl))bis(piperidine-1,4-diyl))bis(ethane-2,1-diyl))bis(oxy))bis(2-oxoethane-2,1-diyl))bis(4,1-phenylene)) 9,9′-di(heptadecan-9-yl) di(nonanedioate)]",equivalent or higher,equivalent or higher,,,,,
"CCCCCCCC/C=C\CCCCCCCC(=O)Oc1ccc(CC(=O)OCCC2CCN(CCSSCCN3CCC(CCOC(=O)Cc4ccc(OC(=O)CCCCCCCC(=O)OC(CCCCCCCC)CCCCCCCC)cc4)CC3)CC2)cc1 [Lipid 1, 1-(heptadecan-9-yl) 9-(4-(2-(2-(1-(2-((2-(4-(2-(2-(4-(oleoyloxy)phenyl)acetoxy)ethyl)piperidin-1-yl)ethyl)disulfaneyl)ethyl)piperidin-4-yl)ethoxy)-2-oxoethyl)phenyl) nonanedioate]",equivalent or higher,equivalent or higher,,,,,"luciferase expression and/or activity, rank among lipids tested [1]: highest; luciferase expression and/or activity compared to positive control SS-OP ceDNA LNP [1]: higher"
"CCCCCCCCCOC(=O)CCCCCCCC(=O)Oc1ccc(CC(=O)OCCC2CCN(CCSSCCN3CCC(CCOC(=O)Cc4ccc(OC(=O)CCCCCCCC(=O)OC(CCCC)CCCCCCCC)cc4)CC3)CC2)cc1 (stereo not drawn) [Lipid 10, 1-nonyl 9-(4-(2-oxo-2-(2-(1-(2-((2-(4-(2-(2-(4-((9-oxo-9-(tridecan-5-yloxy)nonanoyl)oxy)phenyl)acetoxy)ethyl)piperidin-1-yl)ethyl)disulfaneyl)ethyl)piperidin-4-yl)ethoxy)ethyl)phenyl) nonanedioate]",,,,,equivalent or higher,did not cause significant changes in body weight,
"CCCCCCCCCOC(=O)CCCC(=O)Oc1ccc(CC(=O)OCCC2CCN(CCSSCCN3CCC(CCOC(=O)Cc4ccc(OC(=O)CCCCCCCC(=O)OC(CCCCCCCC)CCCCCCCC)cc4)CC3)CC2)cc1 [Lipid 2, 1-(heptadecan-9-yl) 9-(4-(2-(2-(1-(2-((2-(4-(2-(2-(4-((5-(nonyloxy)-5-oxopentanoyl)oxy)phenyl)acetoxy)ethyl)piperidin-1-yl)ethyl)disulfaneyl)ethyl)piperidin-4-yl)ethoxy)-2-oxoethyl)phenyl) nonanedioate]",equivalent or higher,equivalent or higher,,,,,
"CCCCCCCCCOC(=O)CCCCCCCC(=O)Oc1ccc(CC(=O)OCCC2CCN(CCSSCCN3CCC(CCOC(=O)Cc4ccc(OC(=O)CCCCCCCC(=O)OC(CCCCCC)CCCCCCCC)cc4)CC3)CC2)cc1 (stereo not drawn) [Lipid 11, 1-nonyl 9-(4-(2-oxo-2-(2-(1-(2-((2-(4-(2-(2-(4-((9-oxo-9-(pentadecan-7-yloxy)nonanoyl)oxy)phenyl)acetoxy)ethyl)piperidin-1-yl)ethyl)disulfaneyl)ethyl)piperidin-4-yl)ethoxy)ethyl)phenyl) nonanedioate]",,,,,equivalent or higher,did not cause significant changes in body weight,

# From US12252470B2, “Lipids and nanoparticle compositions thereof” (Generation Bio Co., priority 2020, dated 2025)
